Each structure is given as a SMILES string.

This data set is described as follows: ER804057 content of the emulsion by extraction and HPLC-UV after storage. Format: physicochemical. As to conditions: emulsion PIT-ER804057 at 5%; for ER804057 content in the emulsion: theoretical concentration 40 μg/ml. The protocol: The stability of this thermoreversible emulsion was evaluated after storage for 6 months at a temperature of +4° C. by verifying the ER804057 content in the emulsion and by checking the size distribution of oil droplets in the emulsion. To assay ER804057, a selective extraction of ER804057 from the emulsion was carried out, followed by analysis by high performance liquid chromatography (HPLC) coupled to UV detector equipped with […]. The ER804057 content of the emulsion to be verified was determined using a standard range containing between 5 and 25 μg/ml of ER804057. In order to compensate for the variations in extraction yields, a constant amount of an internal standard, the chemical structure of which is very similar to that of ER804057, was introduced into each sample to be assayed (including into the samples of the standard range). This internal standard was the chemical molecule called ER803022.
The sample of PIT-ER804057 at 5% to be assayed was prepared by taking an aliquot of the emulsion PIT-ER804057 at 5%, to which 10 μg of internal standard was added, and which was diluted in water for injectable preparation.
The extraction of ER804057 from the samples of the standard range or from the samples of PIT-ER804057 at 5% was carried out in the following way: The sample was solubilized with CM2:1. The two-phase system obtained was composed of a chloroform phase containing predominantly ER804057 and an aqueous phase containing the other compounds of the emulsion. The chloroform phase was recovered and evaporated under hot conditions under a stream of nitrogen. The dry extract obtained was taken up and again solubilized in the CM2:1 mixture. […] The dry extract derived from each sample was conserved at −20° C. before being analyzed by HPLC.
The dry extract of each sample was taken up with 50 μl of CM4:1, and then diluted to ½ in methanol, then to 1/10th in a mixture of 30% acetonitrile-water for injectable preparation, 20 μl of the dilution were injected into a liquid chromatography apparatus (HPLC Merck Hitachi, serie 7000) comprising a Waters XTerra™ RP8 column pre-equilibrated in a mobile phase consisting of a mixture of 80% of phase A (water for injectable preparation/ethanol 50/50 containing 2% H3PO4) and 20% of phase B (ethanol containing 2% H3PO4), ER804057 and the internal standard were eluted using a gradient of ethanol containing 2% H3PO4. At the outlet of the HPLC, the eluate meets the UV detector and the molecules are detected at the wavelength of 215 nm. […] Once the curve was established, the amount of ER804057 present in the emulsion PIT-ER804057 at 5% was then determined by measuring the ratio of the surface areas of the ER804057/internal standard peaks.

Consider `CCCCCCCCCCCC(=O)CC(=O)N[C@H](COCC[C@@H](CCCCCCC)OC(=O)CCCCCCCCCCC)COP(=O)(O)OCCNC(=O)NCCOP(=O)(O)OC[C@@H](COCC[C@@H](CCCCCCC)OC(=O)CCCCCCCCCCC)NC(=O)CC(=O)CCCCCCCCCCC` [ER804057, dodecanoic acid (1R,6R,22R,27R)-1,27-diheptyl-9,19-dihydroxy-9,19-dioxido-14-oxo-6,22-bis[(1,3-dioxotetradecyl)amino]-4,8,10,18,20,24-hexaoxa-13,15-diaza-9,19-diphosphaheptacosane-1,27-diyl ester], for which the “ER804057 content in the emulsion” value is, setting by setting: (1 month at +4° C.) 38 µg/mL; (3 months at +4° C.) 37 µg/mL; (6 months at +4° C.) 42 µg/mL. The “change of ER804057 concentration in the emulsion on storage” value (6 months at +4° C.) is “has not substantially varied”.
